As a reminder, the EC50 is the concentration that produces a half-maximal response. One may read the CC50 as the concentration that lowers cell viability or growth by half.

Values after ≈ are worked out from the molar mass of the structure shown. Read-outs that look alike come from different tables or passages of the source.

Results on seven compounds are retold here after article PMC4314066, “Houttuynia cordata Targets the Beginning Stage of Herpes Simplex Virus Infection” (PLoS ONE, 2015).

Series [1] relates to Acyclovir-resistant HSV-1 (HSV-AR). The experiment in a line: microbe, parasite or virus in culture. Format: cell-based. The settings on record: Human alphaherpesvirus 1, Vero, read-out: EC50 HSV-AR. The protocol:
(§1) African green monkey kidney cells (Vero, ATCC CCL-81) and human epithelial carcinoma cells (HEp-2, ATCC CCL-23 and A549, ATCC CCL-185) were maintained in Dulbecco’s modified Eagle’s medium (DMEM), modified Eagle’s medium (MEM) and RPMI-1640 medium, respectively, supplemented with 10% fetal bovine serum (Gibco), 100 units/mL penicillin, and 100 μg/mL streptomycin. All the cell lines were cultured at 37°C with 5% CO2. HSV-1F (ATCC VR-733) and HSV-2G (ATCC VR-734) stocks were propagated in Vero cells, aliquoted and stored at -80°C. ACV-resistant HSV-1 was generated in our previous study.
(§2) 1X 10^6 Vero cells were seeded onto 6-well culture plates for 24 hours and infected with 100 pfu/well virus at 37°C for 1 hour. […] After 3 days, the cells were fixed with 3.7% formaldehyde and stained with crystal violet. The plaques were counted.

A further series relates to HSV-2. The experiment in a line: Plaque reduction assay. Format: cell-based. The settings on record: for EC50: read-out: EC50 HSV-2. The method, then:
as §1, §2

Series [2] concerns HSV-1. The experiment in a line: Plaque reduction assay. As to conditions: for EC50: read-out: EC50 HSV-1. Format: cell-based. The protocol: as §1, §2
The next series is described as follows: MTT cytotoxicity assay. Format: cell-based, African green monkey. As to conditions: African green monkey. The protocol:
(§3) All the cell lines were cultured at 37°C with 5% CO2. […] ACV-resistant HSV-1 was generated in our previous study.
(§4) The cells were washed with PBS, added with 0.1 mg/mL MTT reagent [3-(4,5-dimethylthiazol-2-yl)-2,5-diphenyl tetrazolium bromide; Sigma] and incubated at 37°C for 5 hours. After incubation, MTT reagent was removed and DMSO was added to each well. The absorbance was then determined by ELISA reader (SpectraMAX 340, Molecular Devices) at the wavelength of 550 nm.

In the next series the test system is NF-κB. The experiment in a line: NF-κB translocation analysis by Western blot of nuclear fractions. Format: cell-based. As to conditions: HSV-1 infection, nuclear fraction at 3 h.p.i. An excerpt: During HSV infection, there are two waves of NF-κB activation. The first-wave of NF-κB activation could enhance ICP0 transcription via binding onto viral ICP0 promoter while the second-wave of NF-κB activation could prevent host cells from apoptosis. […] The nuclear fractions were extracted and applied to NF-κB translocation analysis by Western blot assay. […] After transfection, luciferase activity of pGL-ICP0 Wt transfected cells increased up to 3,000-fold compared with the vector control, pGL, in HSV-1 infection. […] Although it is well known the expression of ICP0 is regulated by NF-κB, the exact NF-κB binding site on ICP0 promoter is not identified yet. […] Only one NF-κB binding site was predicted within the HSV-1 ICP0 promoter. To determine whether the HCWEs-mediated ICP0 suppression was NF-κB-dependent, the predicted NF-κB binding site within pGL-ICP0 Wt was mutated by PCR-based mutagenesis and the resulting plasmid was named as pGL-ICP0 Mut. […] The results implied that HSV-1 ICP0 promoter activity was at least partly regulated by NF-κB.
(Immunoblotting shows a protein as a band on a membrane.)

The subject of series [3] is HSV-1. Description: Virus binding to Vero cells, Western blot of cell-bound virus gD. Format: cell-based. As to conditions: 1 m.o.i., 4°C.
Series [4] concerns HSV-1. Description: Virus pre-treatment assay (plaque assay). Format: cell-based. As to conditions: 100 pfu HSV-1 pretreated, Vero cells, Fig. 9A. The protocol: After incubation, HCWEs-pretreated cells were washed with PBS and then infected with 100 pfu HSV. The inhibitory activities were analyzed by plaque assay. […] After 3 hours of incubation, 1X10^6 Vero cells were infected with HCWEs-pretreated virus and then analyzed by plaque assay.

The next series concerns Vero cells. Description: MTT cytotoxicity assay. Format: cell-based, African green monkey. As to conditions: Vero cells, MTT. The protocol: as §3, §4
Where [5] appears, read: Human alphaherpesvirus 2, Vero cells.
Where [6] appears, read: Human alphaherpesvirus 1, Vero cells.
Setting [7] is: Vero cells, MTT, read-out: CC50.

Turning to `Nc1nc2c(ncn2COCCO)c(=O)[nH]1` [Acyclovir, acyclovir, reference compound], the EC50 in series [1] was 14 µg/mL (≈ 62.3 µM); in the series on HSV-2 (setting [5]) it was 0.82 µg/mL (≈ 3.64 µM); in the series on HSV-1 [2] (setting [6]), 0.74 µg/mL (≈ 3.29 µM). For the same compound, the CC50 at 3 days in the series “MTT cytotoxicity assay” (setting [7]) was above 450 µg/mL.

As for `C[C@@H]1O[C@@H](Oc2c(-c3ccc(O)c(O)c3)oc3cc(O)cc(O)c3c2=O)[C@H](O)[C@H](O)[C@H]1O` [Quercitrin, quercitrin], the EC50 is above 142 µg/mL with HSV-2 (Human alphaherpesvirus 2, Vero) and above 142 µg/mL in the series on HSV-1 [2] (Human alphaherpesvirus 1, Vero). In the series “MTT cytotoxicity assay” (setting [7]), the CC50 at 3 days amounted to 142 µg/mL (≈ 317 µM).

In the case of `O=c1c(O[C@@H]2O[C@H](CO)[C@@H](O)[C@H](O)[C@H]2O)c(-c2ccc(O)c(O)c2)oc2cc(O)cc(O)c12` [Isoquercitrin, isoquercitrin], in the series on NF-κB, the “HSV-induced NF-κB translocation / activation” value was “inhibited NF-κB activation”. For the same compound, the “cell binding ability of HSV-1 (Western blot)” value (from here on “cell binding ability”) in the series with HSV-1 [3] was “not”. Further, the “inhibition of HSV-1 by pretreatment of virus with pure compound” value (“inhibition” for short) in the series on HSV-1 [4] was “not”. The EC50 came to 0.39 µg/mL (≈ 0.84 µM) in the series with HSV-2 (setting [5]) and 0.42 µg/mL (≈ 0.904 µM) with HSV-1 [2] (setting [6]). Further, the “SI HSV-1 (CC50/EC50)” value with HSV-1 [2] is above 476.2. Further, the cytotoxic concentration (CC50) at 3 days in “MTT cytotoxicity assay” (setting [7]) is above 200 µg/mL.

Turning to `O=c1c(O)c(-c2ccc(O)c(O)c2)oc2cc(O)cc(O)c12` [Quercetin, quercetin], the “HSV-induced NF-κB translocation / activation” value in the series on NF-κB was “inhibited NF-κB activation”. Further, in the series with HSV-1 [3], the “cell binding ability” value was “inhibited the binding of HSV-1 onto host cells”. Moreover, the “inhibition” value with HSV-1 [4] is “targeted virus particles directly and inhibited viral entry”. In addition, in the series with HSV-2, the “SI HSV-2 (CC50/EC50)” value came out at 6.94. Also, the EC50 turned out to be 70 µg/mL (≈ 232 µM) in the series on HSV-2 (setting [5]) and 52.9 µg/mL (≈ 175 µM) in the series with HSV-1 [2] (setting [6]). Also, in the series with HSV-1 [2], the “SI HSV-1 (CC50/EC50)” value is 9.18. For the same compound, the CC50 at 3 days in “MTT cytotoxicity assay” (setting [7]) stood at 486 µg/mL (≈ 1610 µM).

`C[C@@H]1O[C@@H](OC[C@H]2O[C@@H](Oc3c(-c4ccc(O)c(O)c4)oc4cc(O)cc(O)c4c3=O)[C@H](O)[C@@H](O)[C@@H]2O)[C@H](O)[C@H](O)[C@H]1O` [Rutin, rutin]: the “cell binding ability” value in the series on HSV-1 [3] is “not”. Also, the “inhibition” value in the series on HSV-1 [4] is “not”. The “SI HSV-2 (CC50/EC50)” value in the series with HSV-2 turned out to be 4.146. Moreover, the figures for the EC50 with HSV-2 (setting [5]) and in the series with HSV-1 [2] (setting [6]) were 169 µg/mL (≈ 278 µM) and 188 µg/mL (≈ 307 µM), respectively. Besides, the “SI HSV-1 (CC50/EC50)” value in the series on HSV-1 [2] is 3.745. The compound also came in with a CC50 at 3 days in the series “MTT cytotoxicity assay” of 702 µg/mL (≈ 1150 µM).

With `O=c1c(O[C@@H]2O[C@H](CO)[C@H](O)[C@H](O)[C@H]2O)c(-c2ccc(O)c(O)c2)oc2cc(O)cc(O)c12` [Hyperin, hyperin], in the series on HSV-2 (Vero cells), the “EC50 HSV-2” value was above 500 µg/mL. For the same compound, the “EC50 HSV-1” value in the series on HSV-1 [2] (Vero cells) was above 500 µg/mL. Moreover, in the series with Vero cells, the 50% cytotoxic concentration (CC50) is above 500 µg/mL.

For the compound `O=C(/C=C/c1ccc(O)c(O)c1)O[C@@H]1C[C@](O)(C(=O)O)C[C@@H](O)[C@H]1O` [Chlorogenic acid, chlorogenic acid], the EC50 in the series with HSV-2 (setting [5]) and in the series on HSV-1 [2] (setting [6]) was above 1240 µg/mL each time. The CC50 at 3 days in “MTT cytotoxicity assay” (setting [7]) was 1240 µg/mL (≈ 3510 µM).
